The source made the active and inactive calls. No cut-off for these calls is given here.
Assays:
[1] = target: T1, Adenosine receptor A1 (Homo sapiens) (UniProt P30542); assay: Displacement of [3H]DPCPX from human adenosine A1 receptor expressed in CHO cells at 10 uM after 120 mins by scintillation counting; type: cell-based
T1 sequence (whole entry): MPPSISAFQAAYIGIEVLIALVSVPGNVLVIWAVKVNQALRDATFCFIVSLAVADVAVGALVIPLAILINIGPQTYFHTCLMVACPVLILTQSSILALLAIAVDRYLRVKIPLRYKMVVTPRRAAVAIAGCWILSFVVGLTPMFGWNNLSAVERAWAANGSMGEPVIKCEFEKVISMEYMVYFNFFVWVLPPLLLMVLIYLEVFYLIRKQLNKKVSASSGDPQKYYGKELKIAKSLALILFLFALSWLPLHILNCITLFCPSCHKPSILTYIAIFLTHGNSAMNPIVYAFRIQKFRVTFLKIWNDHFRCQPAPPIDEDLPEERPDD

[2] = target: T2, Adenosine receptor A3 (Homo sapiens) (UniProt P0DMS8); assay: Displacement of [3H]MRE-3008-F20 from human adenosine A3 receptor expressed in CHO cells at 10 uM after 120 mins by scintillation counting; type: cell-based
T2 sequence (whole entry): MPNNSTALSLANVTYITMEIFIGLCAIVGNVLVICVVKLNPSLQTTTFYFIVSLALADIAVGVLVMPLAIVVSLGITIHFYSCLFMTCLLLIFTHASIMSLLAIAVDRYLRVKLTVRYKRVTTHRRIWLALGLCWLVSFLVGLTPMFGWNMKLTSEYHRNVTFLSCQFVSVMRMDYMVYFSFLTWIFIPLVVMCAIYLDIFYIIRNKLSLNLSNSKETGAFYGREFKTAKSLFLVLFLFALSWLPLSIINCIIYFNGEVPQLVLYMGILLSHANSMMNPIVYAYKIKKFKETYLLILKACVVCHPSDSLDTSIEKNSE

[3] = target: T1, Adenosine receptor A1 (Homo sapiens); assay: Allosteric enhancing activity at human adenosine A1 receptor expressed in CHO cells assessed as inhibition of forskolin-stimulated cAMP accumulation at 100 nM incubated for 10 mins prior to forskolin-stimulation measured after 5 mins by competition protein binding assay in presence of 2-chloro-N6-cyclopentyladenosine; type: functional, cell-based
[4] = target: T1, Adenosine receptor A1 (Homo sapiens); assay: Allosteric enhancing activity at human adenosine A1 receptor expressed in CHO cells assessed as increase in [3H]-2-chloro-N6-cyclopentyladenosine Bmax at 10 uM after 90 mins relative to control; type: cell-based
[5] = target: Adenosine receptor A2a (Homo sapiens) (UniProt P29274); assay: Displacement of [3H]ZM241385 from human adenosine A2A receptor expressed in CHO cells at 10 uM after 120 mins by scintillation counting; type: cell-based
Sequence of Adenosine receptor A2a (Homo sapiens) (P29274 whole entry): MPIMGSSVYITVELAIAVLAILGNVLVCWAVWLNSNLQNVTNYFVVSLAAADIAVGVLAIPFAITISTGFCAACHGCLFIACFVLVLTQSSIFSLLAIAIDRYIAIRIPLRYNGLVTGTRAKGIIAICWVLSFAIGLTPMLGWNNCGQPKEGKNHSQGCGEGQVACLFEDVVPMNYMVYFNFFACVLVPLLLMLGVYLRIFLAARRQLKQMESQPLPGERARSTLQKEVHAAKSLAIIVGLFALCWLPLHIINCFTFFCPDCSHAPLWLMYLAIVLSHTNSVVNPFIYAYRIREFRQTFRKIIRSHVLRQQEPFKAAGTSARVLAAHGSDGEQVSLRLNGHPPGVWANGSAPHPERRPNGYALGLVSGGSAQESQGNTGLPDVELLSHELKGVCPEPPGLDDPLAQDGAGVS

[6] = target: T1, Adenosine receptor A1 (Homo sapiens); assay: Allosteric enhancing activity at human adenosine A1 receptor expressed in CHO cells assessed as inhibition of forskolin-stimulated cAMP accumulation at 10 uM incubated for 10 mins prior to forskolin-stimulation measured after 5 mins by competition protein binding assay; type: functional, cell-based
[7] = target: T1, Adenosine receptor A1 (Homo sapiens); assay: Allosteric enhancing activity at human adenosine A1 receptor expressed in CHO cells assessed as increase in CCPA-induced [3H]DPCPX displacement at 10 uM after 90 mins relative to control; type: cell-based

inhibition [1] | inhibition [2] [%] | inhibition [3] [%] | fold change (FC) [4] | inhibition [5] | inhibition [6] [%] | Ratio Ki [7] | SMILES
< 12% | < 12 | 58 | 6.6 | < 12% | 61 | 5.9 | Cc1ccc(N2CCN(Cc3c(C)sc(N)c3C(=O)c3ccc(Cl)cc3)CC2)cc1
< 12% | < 12 | 57 | 6.8 | < 12% | 59 | 6.4 | Cc1sc(N)c(C(=O)c2ccc(Cl)cc2)c1CN1CCN(c2ccccc2)CC1
< 12% | < 12 | 15 | 1.4 | < 12% | 11 | 1.2 | Cc1sc(N)c(C(=O)c2ccc(Cl)cc2)c1CN1CCN(c2ccc(C#N)cc2)CC1
< 12% | < 12 | 53 | 6.5 | < 12% | 60 | 6 | CCc1sc(N)c(C(=O)c2ccc(Cl)cc2)c1CN1CCN(c2ccc(Cl)cc2)CC1
< 12% | < 12 | 71 | 11.4 | < 12% | 85 | 8.7 | Nc1sc(-c2ccc(Cl)cc2)c(CN2CCN(c3ccc(Cl)cc3)CC2)c1C(=O)c1ccc(Cl)cc1
< 12% | < 12 | 72 | 10.2 | < 12% | 75 | 9.5 | Nc1sc(-c2ccc(Cl)cc2)c(CN2CCN(c3ccccc3)CC2)c1C(=O)c1ccc(Cl)cc1
< 12% | < 12 | 45 | 5.4 | < 12% | 54 | 4.8 | Cc1sc(N)c(C(=O)c2ccc(Cl)cc2)c1CN1CCN(c2ccc(I)cc2)CC1
< 12% | < 12 | 68 | 9.5 | < 12% | 71 | 8.3 | Nc1sc(-c2ccc(Cl)cc2)c(CN2CCN(c3ccc(F)cc3)CC2)c1C(=O)c1ccc(Cl)cc1
< 12% | < 12 | 13 | 1.3 | < 12% | 9 | 1.1 | Cc1sc(N)c(C(=O)c2ccc(Cl)cc2)c1CN1CCN(c2ccc([N+](=O)[O-])cc2)CC1
 |  |  | 7.7 |  |  | 6.3 | Nc1scc(CN2CCN(c3ccc(C(F)(F)F)cc3)CC2)c1C(=O)c1ccc(Cl)cc1
< 12% | < 12 | 30 | 3.2 | < 12% | 31 | 2.6 | COc1ccc(N2CCN(Cc3c(C)sc(N)c3C(=O)c3ccc(Cl)cc3)CC2)cc1
 |  |  | 6.8 |  |  | 5.3 | Nc1scc(CN2CCN(c3ccc(OC(F)(F)F)cc3)CC2)c1C(=O)c1ccc(Cl)cc1
 |  |  | 7 |  |  | 5.6 | Nc1scc(CN2CCN(c3ccc(Cl)cc3)CC2)c1C(=O)c1ccc(Cl)cc1

Further lines, the molecule ahead of its results:

SMILES | inhibition [1] | inhibition [2] [%] | inhibition [3] [%] | fold change (FC) [4] | inhibition [5] | inhibition [6] [%] | Ratio Ki [7]
Cc1sc(N)c(C(=O)c2ccc(Cl)cc2)c1CN1CCN(Cc2ccccc2)CC1 | < 12% | < 12 | 19 | 1.8 | < 12% | 14 | 1.4
Nc1sc(-c2ccccc2)c(CN2CCN(c3cccc(C(F)(F)F)c3)CC2)c1C(=O)c1ccc(Cl)cc1 | < 12% | < 12 | 60 | 7.5 | < 12% | 63 | 7.1
Nc1sc(-c2ccccc2)c(CN2CCN(c3ccc(C(F)(F)F)cc3)CC2)c1C(=O)c1ccc(Cl)cc1 | < 12% | < 12 | 73 | 10.7 | < 12% | 72 | 8.9
Nc1sc(-c2ccccc2)c(CN2CCN(c3ccccc3C(F)(F)F)CC2)c1C(=O)c1ccc(Cl)cc1 | < 12% | < 12 | 66 | 8.2 | < 12% | 62 | 7.6
Nc1sc(-c2ccc(Cl)cc2)c(CN2CCN(c3ccc(Cl)c(C(F)(F)F)c3)CC2)c1C(=O)c1ccc(Cl)cc1 | < 12% | < 12 | 70 | 10.1 | < 12% | 76 | 8
Nc1sc(-c2ccccc2)c(CN2CCN(c3ccc(Cl)c(C(F)(F)F)c3)CC2)c1C(=O)c1ccc(Cl)cc1 | < 12% | < 12 | 65 | 8.5 | < 12% | 64 | 7.9
Nc1sc(-c2ccccc2)c(CN2CCN(c3ccc(OC(F)(F)F)cc3)CC2)c1C(=O)c1ccc(Cl)cc1 | < 12% | < 12 | 69 | 9.4 | < 12% | 67 | 8.4
Nc1sc(-c2ccc(F)cc2)c(CN2CCN(c3ccc(F)cc3)CC2)c1C(=O)c1ccc(Cl)cc1 | < 12% | < 12 | 77 | 11.7 | < 12% | 82 | 9.5
Nc1sc(-c2ccc(Cl)cc2)c(CN2CCN(c3ccc(Cl)c(Cl)c3)CC2)c1C(=O)c1ccc(Cl)cc1 | < 12% | < 12 | 67 | 8.3 | < 12% | 69 | 7.7
Cc1sc(N)c(C(=O)c2ccc(Cl)cc2)c1CN1CCN(c2ccc(Cl)c(C(F)(F)F)c2)CC1 | < 12% | < 12 | 48 | 5.1 | < 12% | 52 | 4.6
Nc1sc(-c2ccc(Cl)cc2)c(CN2CCN(c3cccc(C(F)(F)F)c3)CC2)c1C(=O)c1ccc(Cl)cc1 | < 12% | < 12 | 78 | 11.8 | < 12% | 81 | 13
Cc1sc(N)c(C(=O)c2ccc(Cl)cc2)c1CN1CCN(c2ccc(Cl)c(Cl)c2)CC1 | < 12% | < 12 | 51 | 5.9 | < 12% | 56 | 5.4
Nc1sc(-c2ccc(Cl)cc2)c(CN2CCN(Cc3ccccc3)CC2)c1C(=O)c1ccc(Cl)cc1 | < 12% | < 12 | 63 | 7.7 | < 12% | 65 | 6.8
Cc1sc(N)c(C(=O)c2cccc(C(F)(F)F)c2)c1C | inactive |  | 22 | 1.3 | inactive |  | 1.6

From ChEMBL document CHEMBL2169819, “Synthesis and biological evaluation of 2-amino-3-(4-chlorobenzoyl)-4-[(4-arylpiperazin-1-yl)methyl]-5-substituted-thiophenes. effect of the 5-modification on allosteric enhancer activity at the A1 adenosine receptor” (J Med Chem, 2012)
